One compound from patent publication US20250171821A1, “HIF-1 ACTIVATORS AND USES THEREOF” (Ramot at Tel-Aviv University Ltd., priority 2022, published 2025) can be followed below.

The test system of one data set is fibroblasts. The experiment in a line: Cell-Titer assay of cellular ATP levels, fibroblasts. The note with it: for IC50: Homo sapiens, Fibroblast. In kind it is cell-based. From the text: Human fibroblasts were isolated from fragments of healthy masticatory oral mucosa (from the posterior hard palate) collected during periodontal surgeries. Informed consent was obtained from all patients. Shallow tissue samples (without submucosa) with a diameter of approximately 2 mm were excised using a #15C scalpel blade. Exclusion criteria for potential tissue donors were smoking, any systemic disease, pregnancy or lactation, or a history of periodontal disease. Cells were separated into connective tissue and epithelium using dispase II (Sigma-Aldrich, Rehovot, Israel) at 2 mg/mL for two hours at 37° C.
(§1) The live/dead viability assay (cat #04511-1KT-F Merck, Germany) was used according to the manufacturer's protocol. Briefly, cells were incubated in a medium supplemented with the indicated concentrations of ML228 for 48 hours. Fluorescein diacetate (6.6 μg/mL) and propidium iodide (5 μg/mL) (Merck, NJ, USA) were prepared in DMEM and added to the cells. Confocal images were captured after addition of the dyes with ZEISS LSM 900, Laser Scanning Microscope. Fluorescence readouts were obtained with ex/em of 490/515 nm and 535/617 nm for green and red, respectively. Cellular ATP levels were quantified using the cell-titer assay (Promega, WI, USA cat #G7570).

In another data set the test system is fibroblast cells. In words: live/dead viability assay, fibroblasts. It counts as cell-based. Conditions: ML228 0.62 and 5 μM, 48 hours. The method, then: as §1
The next data set deals with MG-63 cells. In words: live/dead viability assay, osteoblasts. It counts as cell-based. The note with it: MG-63 osteoblasts, ML228 0.62 and 5 μM, 48 hours. The method, then:
as §1

For data set [1], the system named is HIF-1α, Collagen-I protein levels in fibroblast cells. In words: Western blot of HIF-1α and Collagen-I in fibroblast lysate. It counts as cell-based, human. The method, then:
Cells at a density of 50,000 cells/well in a 24-well plate were cultured for 2 days with variable ML228 concentrations. Cells were sonicated and lysed in a buffer containing 20 mM Tris-HCL pH=7.5 with a protease inhibitor (Abcam, Cambridge, UK) or a protease inhibitor from Merck (539134, Merck). Equal amounts (1 μg) of total protein were loaded and tested using Western blotting. Samples were divided for testing native samples and denaturative samples, which were dependent on each antibody recognition sites. Samples size was separated by a 6% sodium dodecyl sulfate (SDS) gel and transferred to nitrocellulose membranes that was further incubated overnight with primary antibodies of HIF-1α, and β-tubulin. As for detecting Collagen-I, samples were prepared in native conditions absent of SDS and β-mercaptoethanol. Thereafter, samples were separated by a native gel. Detection of Collagen-I was done in 6% native gel enabling observation of non-denatured structural collagen and preventing thermal degradation of the heat sensitive collagen. After extensive washing with TBST (Tris-buffered saline supplemented with 0.1% Tween-20), the membrane was further incubated with an HRP-conjugated secondary antibody for 1 hour. Chemiluminescence values were read after the addition of ECL substrate in a ChemiDoc imager (Biorad CA, USA).

The test system of data set [2] is NIH/3T3 cell line. In words: Cell confluence / number of cells per image in NIH/3T3 cells. The note with it: 0.63-5 μM ML228, 48 hours, p<0.0001. In kind it is cell-based, mouse. The method, then:
(§2) Embryonic mouse fibroblast NIH/3T3 cell line (ATCC) were seeded at a concentration of 50*10^3 cells/well on 96 well glass bottom plate (P96-1.5H-N, Cellvis) for the immunofluorescence experiment and on cell culture microplate, 96 well, PS, F-Bottom (655090, greiner) for the viability experiment. The cells were cultured with Dulbecco's modified Eagle's medium (DMEM) supplemented with 10% fetal calf serum, 1% Penicillin-Streptomycin solution and 1% L-glutamine (All purchased from Rhenium). At 24 hours post seeding, cells were treated for another 48 hours by replacing them with the cell medium supplemented with a serial dilution (5-0.02 μM, factor dilution of 2) of the ML228, Daprodustat, Enarodustat, Molidustat, Vadadustat or Roxadustat molecules dissolved in DMSO. The final DMSO concentration in the cell medium was 0.01%. Cells were maintained in an incubator at 37° C. in a humidified atmosphere containing 5% CO2.
Image acquisition and quantification were performed by Incucyte SX5 (Sartorius) using software version 2022B Rev2. A standard scan was done for 9 images per well using 20× objective, 2 optical modules (green at excitation/emission of 453-485 nm/494-533 nm in 300 msec acquisition time, and near-IR at excitation/emission of 648-674 nm/685-756 nm in 400 msec acquisition time, including Phase channel) following immunofluorescence protocol. For the image analysis, 2-6 replicates per condition were used. Using the Basic Analyzer mode, “Phase Object Confluence (%)” was acquired using the Phase channel. This measurement is the percentage of the image area occupied by cells. “Total Collagen-I Integrated Intensity Per Image (GCU×μm^2/Image)” was acquired using the green optical module. GCU stands for Green calibrated Unit, while this measurement is the total sum of the Collagen-I objects' fluorescent intensity in the image. “#Cells (Per image)” was acquired by the near-IR optical module. This measurement was calculated by counting the number of nuclei per image.
Multiple comparisons were performed by ordinary one-way ANOVA followed by Dunnett's post-hoc statistical hypothesis for comparing each condition mean to the control mean. Statistical analysis was done using GraphPad Prism version 10.0.0 for Windows, GraphPad Software, Boston, Massachusetts USA, worldwideweb(dot)graphpad(dot)com. For statistical analysis, significance was set as (*) p≤0.05; (**) p≤0.01; (***) p≤0.001; (****) p≤0.0001 and (ns; not significant) p>0.05.

In data set [3] the test system is NIH/3T3 cell line. The experiment in a line: Alamar blue viability assay in NIH/3T3 cells. It counts as cell-based, mouse. Conditions: 0.31-5 μM ML228, 48 hours, p<0.0001. The protocol:
as §2, with “Cells were maintained in an incubator at 37° C. in a humidified atmosphere containing 5% CO2.” left out
For the ML228 experiment, at 48 hours post treatment, cells were stained by replacing the cell medium with Alamar blue (Enco, Petach Tikvah, Israel) diluted 1:10 in the cell medium, and incubated for 4 hours (37° C., 5% CO2). Then, fluorescence readouts were obtained using the Spark multimode microplate reader (Tecan) at excitation/emission 540±20 nm/590±20 nm. Cell viability was calculated as the percentage difference of treated cells with ML228 relative to the control cells at 590±20 nm emission.

“Also recorded” adds a separate entry of the source. Read-outs that look alike come from different tables or passages of the source.

Consider `c1ccc(-c2ccc(CNc3nc(-c4ccccn4)nnc3-c3ccccc3)cc2)cc1` [ML228, N-([1,1′-Biphenyl]-4-ylmethyl)-6-phenyl-3-(2-pyridinyl)-1,2,4-triazin-5-amine], for which the IC50 is 0.679 µM in the data set on fibroblasts (fibroblasts, 48 hours, read-out: IC50 (ATP levels relative to non-treated cells)); roughly 0.6 µM with fibroblasts (summary statement for the treated cells (fibroblasts and osteoblasts), read-out: IC50 of cellular viability of ML228-treated cells). The “metabolically active cell viability as measured by ATP levels” value with fibroblasts (fibroblasts, increasing ML228 concentrations, 48 hours) is “decrease in metabolically active cell viability”. For the same compound, the figures for the “cell death / cellular toxicity (live/dead assay)” value in the data set on fibroblast cells and in the data set with MG-63 cells were “without imparting cellular toxicity; also recorded: without imparting cellular death; also recorded: not an increase in cell death” and “without imparting cellular toxicity; also recorded: Almost no dead cells were observed; also recorded: not an increase in cell death”, respectively. For the same compound, the HIF-1α protein level result was “higher levels” in data set [1] (increasing concentrations of ML228, 48 hours) and “no HIF-1α protein is observed” in data set [1] (low doses of ML228, 48 hours). Moreover, the Collagen-I protein level result in data set [1] (increasing concentrations of ML228, 48 hours, native gel) is listed as “higher levels”. Also, the “cell confluence vs untreated cells” value with NIH/3T3 cell line [2] is given as “significant reduction”. Also, the “viability compared to untreated cells” value in the data set with NIH/3T3 cell line [3] is “lower viability”.
